Data as given in ChEMBL document CHEMBL5260811, “Drug development against tuberculosis: Impact of alkaloids” (Eur J Med Chem, 2017).
Converted amounts (≈) assume the structure as drawn.

test system: Mycolicibacterium smegmatis; assay: Antimycobacterial activity against Mycobacterium smegmatis; format: functional; conditions: not given

Row | Compound | IC [µg/mL]
1 | OC1CCCC/C=C\CCCC[C@@H]2CN3CCCC/C=C\CCCC[C@H]4C[C@H](CN(C1)C4)[C@H]2CC3 (stereo not given in full) | 12.5

same assay, conditions: Mycolicibacterium smegmatis

Row | Compound | MIC [µg/mL]
2 | O=C(/C=C/C=C/c1ccc2c(c1)OCO2)N1CCCCC1 [PIPERINE] | 128 (≈ 449 µM)

test system: Mycobacterium tuberculosis; assay: Antimycobacterial activity against Mycobacterium tuberculosis H37Rv; format: functional; conditions: not given

Row | Compound | MIC
3 | C=C1c2[nH]cc(Br)c2[C@H]2NC(N)=N[C@]23CCCN13 | 64 µg/mL
4 | COc1cc2c(cc1OC)C(CC(C)=O)N(C)c1c-2ccc2cc3c(cc12)OCO3 (stereo not given) | 6.2 µg/mL
5 | C=C1CC[C@@]2(C#N)[C@H]3[C@H](CC[C@@H]2C)[C@@H](C)C[C@@H](CC(C)(C)NC(=O)CN2CCC2=O)[C@H]13 | 15.3 µg/mL
6 | C=C1CC[C@@]2(C#N)[C@H]3[C@H](CC[C@@H]2C)[C@@H](C)C[C@@H](CC(C)(C)C)[C@H]13 | 2 µg/mL
7 | CCSC1=CC(=O)c2nc3ccccc3c3ccnc1c23 | 0.34 µM
8 | COc1c(O)ccc2c1cnc1c3cc4c(cc3ccc21)OCO4 [DECARINE] | 3.1 µg/mL
9 | CO/N=c1\[nH]cnc2c1[n+](C/C=C(\C)CC/C=C(\C)CCC1CCCCC1)cn2C.[Cl-] | 1.56 µg/mL
10 | CN1C=NC2=C(N)NCNC21 (stereo not given) | 6.25 µg/mL
11 | C=C[C@@]1(C)C(Cl)C[C@@H]2C(C)(C)c3cccc4[nH]c5c(c34)[C@@]2(O)[C@]1(C#N)[C@@]1(CO1)C5(C)C (stereo not given in full) | 2 µM
12 | Oc1ccc2[nH]c3c(C4=C[C@@]5(O)CC/C=C\CCCCN6CC[C@@H]4C4(C[C@@H]7/C=C\CCCCN7C45)C6)nccc3c2c1 (stereo not given in full) | 1.9 µg/mL
13 | O=C1C(c2ccc(O)cc2)=C(c2ccc(O)cc2)C(=O)N1CCc1ccc(O)cc1 | 16 µg/mL
14 | O=C1c2c(O)ccnc2-c2nccc3c2c1nc1ccccc13 | > 42 µM
15 | c1cc2c[n+](c1)CCCCCCCCCCCCCc1ccc[n+](c1)CCCCCCCCCCCCC2 | 4 µg/mL
16 | CCCCCCCCC/C=C/C=C/C(=O)NCC(C)C | 6.2 µg/mL
17 | COC1=CC(=O)c2nc3ccccc3c3ccnc1c23 | 1.5 µM
18 | Nc1nc(/C=C/CNC(=O)c2cc(Br)c[nH]2)c[nH]1 | 6.1 µg/mL

Row | Compound | MIC
19 | O=C1C(c2ccc(O)cc2)=C(c2ccc(O)cc2)/C(=C/c2ccc(O)cc2)N1CCc1ccc(O)cc1 | 32 µg/mL
20 | CO/N=c1\[nH]cnc2c1[n+](C/C=C(\C)CC/C=C(\C)CC/C=C(\C)CCC=C(C)C)cn2C.[Cl-] | 3.13 µg/mL
21 | CC(=O)C[C@H]1C[C@H]2[C@H]([C@@H]3c4[nH]c5ccccc5c4CCN13)[C@H](O)C13CC/C=C\CCCCN1C[C@@]21CC/C=C\CCCCN[C@@H]31 | 1.5 µg/mL
22 | CC[C@@H](CO)NCCN[C@@H](CC)CO [ETHAMBUTOL] | 5.61 µg/mL
23 | CC1CCC(=NNC(=O)c2[nH]c3ccc(F)cc3c2-c2ccccc2)CC1 (stereo not given) | 6.25 µg/mL
24 | Cc1ccc(SC2=CC(=O)c3nc4ccccc4c(C)c3C2=O)cc1 | 2.2 µM
25 | C=C[C@]1(C)C/C=C(/C#N)C(C)(C)c2[nH]c3cccc4c3c2C(=C)[C@H](CC1Cl)C4(C)C (stereo not given in full) | 53.7 µM
26 | CCCC1CCC2(CC1)SCC(=O)N2NC(=O)c1[nH]c2ccc(F)cc2c1-c1ccccc1 (stereo not given) | 6.25 µg/mL
27 | C=C[C@@]1(C)[C@H](Cl)C[C@@H]2C(C)(C)c3cccc4[nH]c5c(c34)[C@@]2(O)[C@]1(C#N)C=CC5(C)C | 2.8 µg/mL
28 | C=C1CCCC(C)(C)[C@H]1CC/C(C)=C/CC/C(C)=C/C[n+]1cn(C)c2nc[nH]/c(=N\OC)c21.[Cl-] | 3 µg/mL
29 | CC(=O)C[C@@H]1C[C@H]2[C@H]([C@@H]3c4[nH]c5ccccc5c4CCN13)[C@H](O)C13CC/C=C\CCCCN1C[C@@]21CC/C=C\CCCCN[C@@H]31 | 5.2 µg/mL
30 | Cc1ccc(SC2=CC(=O)c3nc4ccccc4c4ccnc2c34)cc1 | 9 µM
31 | Nc1c(Br)cc(O)c(CC(=O)O)c1Br | 15.9 µg/mL
32 | CC1=CCC[C@H](C)[C@@]1(C)CC/C(C)=C/CC/C(C)=C/Cn1c[n+](C)c2ncnc(N)c21 | 3.13 µg/mL
33 | O=C1C(c2ccc(O)cc2)=C2C(=C(c3ccc(O)cc3)C(=O)N2CCc2ccc(O)cc2)c2ccc(O)cc21 | 4 µg/mL

test system: Mycobacterium tuberculosis; assay: Antimycobacterial activity against Mycobacterium tuberculosis; format: functional; conditions: not given

Row | Compound | IC [µg/mL]
34 | C=C[C@H]1C=C[C@H]2[C@@H]3C[C@H](C)CC[C@H]3[C@@H]3Oc4ccc(cc4)C[C@@]4(O)C[C@H](C(=O)N4)C(=O)[C@@H]1[C@H]23 | 0.78
35 | C/C=C/[C@H]1C=C[C@H]2[C@@H]3C[C@H](C)CC[C@H]3[C@@H]3Oc4ccc(cc4)C[C@@H]4C(=O)NC(=O)[C@H]4C(=O)[C@@H]1[C@H]23 | 3.125
36 | C=C[C@H]1C=C[C@H]2[C@@H]3C[C@H](C)CC[C@H]3[C@@H]3Oc4ccc(cc4)C[C@@H]4C(=O)NC(=O)[C@H]4C(=O)[C@@H]1[C@H]23 | 0.78
37 | CO/N=c1\[n-]cnc2c1[n+](C/C=C(\C)CC/C=C(\C)CCC1=C(C)CCCC1(C)C)cn2C | 6.25
38 | CC1=C(CC/C(C)=C/CC/C(C)=C/C[n+]2cn(C)c3nc[n-]/c(=N\OC(C)(C)C)c32)C(C)(C)CCC1 | 6.25
39 | C=C[C@H]1C=C[C@H]2[C@@H]3C[C@H](C)CC[C@H]3[C@@H]3Oc4ccc(cc4)C[C@]4(O)NC(=O)[C@]5(O[C@H]54)C(=O)[C@@H]1[C@H]23 | 0.78

same assay, conditions: Mycobacterium tuberculosis

Row | Compound | MIC
40 | C=CC(C)(C)c1[nH]c2c(CC=C(C)C)cc(CC=C(C)C)cc2c1C[C@@H]1NC(=O)[C@H](C)NC1=O [ECHINULIN] | 170 µg/mL
41 | O=C(NN1C(=O)C(Cl)C1c1ccc(Cl)cc1)c1cc(O)c(O)c(O)c1 (stereo not given) | 0.83 µg/mL
42 | Nc1c(Br)cc(Br)cc1CN[C@H]1CC[C@H](O)CC1 [AMBROXOL] | 6 µg/mL
43 | c1cc2c[n+](c1)CCCCCCCCCCCCc1ccc[n+](c1)CCCCCCCCCC2 | 4.6 µg/mL
44 | CC(=O)NCCC1C2=C3C(=NC=CC3c3ccccc3N2)C2=C1SCC(=O)N2 (stereo not given) | 32 µM
45 | CCCCCCCCCCCc1cc(=O)c2ccccc2n1C | 2 µg/mL
46 | C[n+]1cc2c3c(ccc2c2ccc4cc5c(cc4c21)OCO5)OCO3.[Cl-] [SANGUINARIUM CHLORIDE] | 24.5 µg/mL
47 | c1cc2c[n+](c1)CCCCCCCCCCCCCCc1ccc[n+](c1)CCCCCCCCCC2 | 5.3 µg/mL
48 | [C-]#[N+][C@@H]1[C@@H]2c3c[nH]c4cccc(c34)C(C)(C)[C@H]2C[C@@H](Cl)[C@]1(C)C=C [HAPALINDOLE G] | 6.8 µM
49 | c1cc2c[n+](c1)CCCCCCCCCCCCCCc1ccc[n+](c1)CCCCCCCCCCC2 | 4.6 µg/mL
50 | COc1ccc(CCC2CCc3ccccc3N2C)cc1OC (stereo not given) | 6.25 µg/mL
51 | [C-]#[N+][C@@H]1[C@H]2c3c[nH]c4cccc(c34)C(C)(C)[C@@H]2CC[C@]1(C)C=C [HAPALINDOLE H] | 58.8 µM
52 | [C-]#[N+][C@@H]1[C@@H]2c3c(C(C)(C)C=C)[nH]c4cccc(c34)C(C)(C)[C@H]2C[C@@H](Cl)[C@]1(C)C=C [AMBIGUINE A ISONITRILE] | 46.7 µM
53 | COC(=O)c1ccc2[nH]c3ccccc3c2c1 | 50 µg/mL
54 | COC(=O)N1CCc2c(OC)c(OC)c(O)c3c2[C@@H]1Cc1cc2c(cc1-3)OCO2 | 128 µg/mL
55 | [C-]#[N+][C@]12C=CC(C)(C)c3[nH]c4cccc5c4c3[C@]1(O)[C@H](CC[C@]2(C)C=C)C5(C)C [AMBIGUINE L ISONITRILE] | 4.5 µg/mL
56 | CN(Cc1cc(Br)cc(Br)c1N)C1CCCCC1 [BROMHEXINE] | 6 µg/mL
57 | O=C(NN1C(=O)C(Cl)C1c1cccc(Cl)c1)c1cc(O)c(O)c(O)c1 (stereo not given) | 0.57 µg/mL
58 | [C-]#[N+][C@@H]1[C@]2(O)c3c(C(C)(C)C=C)[nH]c4cccc(c34)C(C)(C)[C@H]2CC[C@]1(C)C=C [AMBIGUINE C ISONITRILE] | 7 µM
59 | COc1c(O)c2c3c(c1OC)CCN[C@H]3Cc1cc3c(cc1-2)OCO3 | 64 µg/mL
60 | CC(=O)NCCC1=C2Nc3ccccc3C3C=CN=C(C4=C1SCO4)C23 (stereo not given) | 17 µM

Row | Compound | MIC
61 | [C-]#[N+][C@]12[C@H]3O[C@H]3C(C)(C)c3[nH]c4cccc5c4c3[C@]1(O)[C@H](C[C@@H](Cl)[C@]2(C)C=C)C5(C)C [AMBIGUINE E ISONITRILE] | 21 µM
62 | CCCCC/C=C\C/C=C\CCCCc1cc(=O)c2ccccc2n1C | 2 µg/mL
63 | c1cc2c[n+](c1)CCCCCCCCCCCCc1ccc[n+](c1)CCCCCCCCCCC2 | 9.3 µg/mL
64 | O=C(NN1C(=O)C(Cl)C1c1ccccc1Cl)c1cc(O)c(O)c(O)c1 (stereo not given) | 0.76 µg/mL
65 | CO[C@H]1/C=C/O[C@@]2(C)Oc3c(C)c(O)c4c(O)c(c(/C=N/N5CCN(C6CCCC6)CC5)c(O)c4c3C2=O)NC(=O)/C(C)=C\C=C\[C@H](C)[C@H](O)[C@@H](C)[C@@H](O)[C@@H](C)[C@H](OC(C)=O)[C@@H]1C [RIFAPENTINE] | 0.02 µg/mL
66 | COc1ccc2c(c1)[nH]c1cc(OC)c(C(=O)O)cc12 [CLAUSINE K] | 100 µg/mL
67 | CCCC/C=C\CCCCc1cc(=O)c2ccccc2n1C | 2 µg/mL
68 | CN(C)c1ccc(C2C(Cl)C(=O)N2NC(=O)c2cc(O)c(O)c(O)c2)cc1 (stereo not given) | 0.62 µg/mL
69 | Cn1c(=O)ccc2ccccc21 | 6.25 µg/mL
70 | CCCCC/C=C\C/C=C\CCc1cc(=O)c2ccccc2n1C | 2 µg/mL
71 | COc1c(O)c2c3c(c1OC)CCN[C@H]3Cc1cc3c(cc1-2)OCO3.Cl | 4 µg/mL
72 | O=[N+]([O-])c1cn2c(n1)OC[C@@H](OCc1ccc(OC(F)(F)F)cc1)C2 [PRETOMANID] | 0.015 µg/mL
73 | [C-]#[N+][C@]12C[C@@H](O)C(C)(C)c3[nH]c4cccc5c4c3[C@]1(O)[C@H](CC[C@]2(C)C=C)C5(C)C [AMBIGUINE N ISONITRILE] | 10.9 µg/mL
74 | c1cc2c[n+](c1)CCCCCCCCCCCCCc1ccc[n+](c1)CCCCCCCCCC2 | 6.6 µg/mL
75 | CCCC/C=C\CCCCCCc1cc(=O)c2ccccc2n1C | 2 µg/mL
76 | [C-]#[N+][C@]12C[C@@H](O)C(C)(C)c3[nH]c4cccc5c4c3[C@]1(O)[C@H](C[C@@H](Cl)[C@]2(C)C=C)C5(C)C [AMBIGUINE M ISONITRILE] | 3.3 µg/mL
77 | CC(=O)NCCC1C2=C3C(=NC=CC3c3ccccc3N2)c2ncsc21 (stereo not given) | 34 µM
78 | O=[N+]([O-])c1cn2c(n1)OC[C@@H](OCc1ccc(-c3ccc(OC(F)(F)F)cc3)nc1)C2 [TBA-354] | 0.34 µg/mL
79 | COc1ccc2c(c[n+](C)c3c4cc5c(cc4ccc23)OCO5)c1OC.[Cl-] [CHELERYTHRINE CHLORIDE] | 14.3 µg/mL
80 | [C-]#[N+][C@]12[C@H]3O[C@H]3C(C)(C)c3[nH]c4cccc5c4c3[C@]1(O)[C@H](CC[C@]2(C)C=C)C5(C)C | 13.1 µM
